These results are taken from patent publication US10668055B2, “Cancer treatment using combinations of ERK and RAF inhibitors” (BIOMED VALLEY DISCOVERIES, INC., priority 2013, dated 2020).

The structures appear in SMILES notation. Like-named read-outs stand apart in the source and are kept apart here.

The nature of data set [1]: A375 in vivo study: toxicity (body weight, deaths, side effects). From the text: Animals were weighed daily on Days 1-5, then twice per week until completion of the study. […] Individual body weight loss was monitored as per protocol, and any animal that exceeded the limits for acceptable body weight loss was euthanized. Group mean body weight loss also was monitored as per protocol. Dosing was to be suspended in any group that exceeded the limits for acceptable mean body weight loss. If mean body weight recovered, then dosing was to be resumed in that group, but at a lower dosage or less frequent dosing schedule.
Acceptable toxicity for the maximum tolerated dose (MTD) was defined as a group mean body-weight loss of less than 20% during the study and not more than 10% treatment-related (TR) deaths. […] A death was classified as non-treatment-related (NTR) if there was no evidence that death was related to treatment side effects. NTR deaths were further characterized based on cause of death. A death was classified as NTRa if it resulted from an accident or human error. […] A death was classified as NTRu if the cause of death was unknown and there was no available evidence of death related to treatment side effects, metastasis, accident or human error, although death due to treatment side effects cannot be excluded.

The test system of the next data set is A375. The experiment in a line: Single agent proliferation assay (CellTiter-Glo, 72 h). In kind it is cell-based, human. The conditions noted are these: A375, 72 h. As for the experimental part: (§1) Cells were seeded in 96-well plates at the densities and media conditions indicated in Table 17 and allowed to adhere overnight prior to addition of compound or vehicle control. Compounds were prepared from DMSO stocks to give the desired final concentrations. The final DMSO concentration was constant at 0.1%. Test compounds were incubated with the cells for 72 h at 37° C., 5% CO2 in a humidified atmosphere. CellTiter-Glo® reagent (Promega, Madison, Wis.) was added according to manufacturer's instructions and luminescence detected using the BMG FLUOstar plate reader (BMG Labtech, Ortenberg, Germany). The average media only background value was deducted and the data analysed using a 4-parameter logistic equation in GraphPad Prism (GraphPad Software, La Jolla, Calif.).

In data set [2] the test system is A375 human melanoma xenograft. Nature of the data set: A375 in vivo study: tumor growth delay and regression responses. Also noted: species or system athymic nude mice. As for the experimental part: Female athymic nude mice (Crl:NU(Ncr)-Foxn/^nu, Charles River) were nine weeks old with a body weight (BW) range of 17.5 to 26.2 grams on Day 1 of the study. The animals were fed ad libitum water (reverse osmosis, 1 ppm CI), and NIH 31 Modified and Irradiated Lab Diet® consisting of 18.0% crude protein, 5.0% crude fat, and 5.0% crude fiber. The mice were housed on irradiated Enrich-o'cobs™ Laboratory Animal Bedding in static microisolators on a 12-hour light cycle at 20-22° C. (68-72° F.) and 40-60% humidity. The recommendations of the Guide for Care and Use of Laboratory Animals with respect to restraint, husbandry, surgical procedures, feed and fluid regulation, and veterinary care were complied with.
Tumor xenografts were initiated with A375 human melanomas by serial subcutaneous transplantation in athymic nude mice. On the day of tumor implant, each test mouse received a 1 mm^3 A375 fragment implanted subcutaneously in the right flank, and tumor growth was monitored as the average size approached the target range of 80 to 120 mm^3. Tumors were measured in two dimensions using calipers, and volume was calculated using the formula: […]
Ten days after tumor implantation, designated as Day 1 of the study, the animals were sorted into nine groups (Groups 1-9) each consisting of fifteen mice and one group (Group 10) consisting of ten mice. Individual tumor volumes ranged from 75 to 144 mm^3 and group mean tumor volumes were 110 or 111 mm^3.
On Day 1 of the study, mice were sorted into nine groups (Group 1-9) each consisting of fifteen mice and one group (Group 10) consisting of ten mice, and dosing was initiated according to the treatment plan summarized in Table 15 below. Each dose was given by oral gavage (p.o.) in a dosing volume of 10 mL/kg (0.2 mL per 20 grams of body weight), scaled to the body weight of each individual animal. The vehicle and dabrafenib doses were to be given once daily until study end (qd to end), whereas the BVD-523 doses were to be given twice daily until study end (bid to end). For bid dosing, dosing was initiated in the afternoon on Day 1, so that one dose was given on the first day (“first day 1 dose”).
Due to the striking response to combination treatment, dosing in Groups 2-5 was stopped on Day 20 in order to monitor tumor re-growth. Dosing was to be re-initiated in a group when the mean tumor burden reached 1000 mm^3. By Day 42, the 1000 mm^3 mean tumor burden had not been reached in any of the combination groups. Dosing was re-initiated to permit post-final dose serum and tumor sampling for pharmacokinetic analyses. […] The final dosing schedules are shown below in Table 16.
Tumors were measured using calipers twice per week, and each animal was euthanized when its tumor reached the pre-determined tumor volume endpoint of 2000 mm^3 or on the final day, whichever came first. Animals that exited the study for tumor volume endpoint were documented as euthanized for tumor progression (TP), with the date of euthanasia. The time to endpoint (TTE) for analysis was calculated for each mouse by the following equation:
[formula] where TTE is expressed in days, endpoint volume is expressed in mm^3, b is the intercept, and m is the slope of the line obtained by linear regression of a log-transformed tumor growth data set. The data set consists of the first observation that exceeded the endpoint volume used in analysis and the three consecutive observations that immediately preceded the attainment of this endpoint volume. The calculated TTE is usually less than the TP date, the day on which the animal was euthanized for tumor size. […] Any animal classified as having died from NTR (non-treatment-related) causes due to accident (NTRa) or due to unknown etiology (NTRu) were excluded from TTE calculations (and all further analyses). Animals classified as TR (treatment-related) deaths or NTRm (non-treatment-related death due to metastasis) were assigned a TTE value equal to the day of death. […]

For another data set, the system named is G-361. Nature of the data set: Single agent proliferation assay (CellTiter-Glo, 72 h). In kind it is cell-based. Conditions: G-361, 72 h. The method, then: as §1
The test system of data set [3] is A375 cells. Nature of the data set: Combination study, 10×8 dose matrix, Alamar Blue / CellTiter-Glo, Bliss additivity model. The conditions noted are these: single agent. In kind it is cell-based, human.
Experimental: For combination studies, A375 cells (ATCC) were seeded into triplicate 96-well plates at a cell density of 3000 cells/well in DMEM plus 10% FBS and allowed to adhere overnight prior to addition of test compound or vehicle control. Combinations were tested using a 10×8 dose matrix with a final DMSO concentration of 0.2%. A 96 hour assay incubation period followed, with subsequent addition of Alamar Blue 10% (v/v) and 4 hours incubation prior to reading on a fluorescent plate reader. After reading Alamar Blue, the medium/Alamar Blue mix was flicked off and 100 μl of CellTiter-Glo/PBS (1:1) added and the plates processed as per the manufacturer's instructions (Promega). Media only background values were subtracted before the data was analysed. The Bliss additivity model was then applied.
In brief, predicted fractional inhibition values for combined inhibition were calculated using the equation Cbliss=A+B−(A×B) where A and B are the fractional inhibitions obtained by drug A alone or drug B alone at specific concentrations. Cbliss is the fractional inhibition that would be expected if the combination of the two drugs were exactly additive. Cbliss values are subtracted from the experimentally observed fractional inhibition values to give an ‘excess over Bliss’ value. Excess over Bliss values greater than 0 indicate synergy, whereas values less than 0 indicate antagonism. […]
In data set [4] the test system is melanoma xenograft model derived from biopsies obtained from a patient. The experiment in a line: Melanoma xenograft model derived from patient biopsies after progression on vemurafenib. In kind it is in vivo. Conditions: model with acquired cross-resistance.
The subject of data set [5] is A375 cells. Nature of the data set: Proliferation assay (Alamar Blue, 96 hours) on parental and dose-escalated A375 cell lines. Conditions: Homo sapiens.
Experimental: Cancer cell lines were maintained in cell culture under standard media and serum conditions. For dose escalation studies, A375 cells were split, grown to about 40-60% confluence, and then treated with the initial dose of the specified drug.
Proliferation assays were used to track changes in sensitivity to the escalated agent(s) at appropriate time intervals (e.g. each month, although the timing is dependent on adequate cell numbers being available). For proliferation assays, cells were seeded in 96-well plates at 3000 cells per well in drug-free DMEM medium containing 10% FBS and allowed to adhere overnight prior to addition of compound or vehicle control. […] Test compounds were incubated with the cells for 96 hours at 37° C. and 5% CO2 in a humidified atmosphere. Alamar Blue 10% (v/v) was then added and incubated for 4 hours and fluorescent product was detected using a BMG FLUOstar plate reader. The average media only background value was deducted and the data analyzed using a 4-parameter logistic equation in GraphPad Prism. Paclitaxel was used as a positive control.

For `CC(C)(C)c1nc(-c2cccc(NS(=O)(=O)c3c(F)cccc3F)c2F)c(-c2ccnc(N)n2)s1` [Dabrafenib], in data set [1] (G6: 50 mg/kg po qd to end), the “Deaths NTR” value worked out at 0 and the “Deaths TR” value is on record as 0. Also, in data set [1] (G7: 100 mg/kg po qd to end), the “Deaths NTR” value was 0 and the “Deaths TR” value was found to be 0. Also, the “Signs of treatment-related side effects” value in data set [1] (mono- and combination therapy groups) is given as “no noteworthy signs of treatment-related side effects”. The IC50 in the data set on A375 (Homo sapiens, A-375) was approximately 0.7 nM. Besides, in data set [2] (G6: 50 mg/kg po qd to end), the “% TGD” value came out at 75%, the “CR (complete regressions)” value is 0, the “Median TTE” value is given as 16.1 days and the “PR (partial regressions)” value came out at 0. For the same molecule, in data set [2] (G6: 50 mg/kg po qd to end), the T-C came out at 6.9 days, the “TFS (tumor free survivors)” value is 0 and the “Tumors that attained the 2000 mm^3 endpoint volume” value is recorded as “All”. In data set [2] (G7: 100 mg/kg po qd to end), the “% TGD” value came to 210%, the “CR (complete regressions)” value is recorded as 0, the “Median TTE” value worked out at 28.5 days and the “PR (partial regressions)” value stood at 1. Moreover, in data set [2] (G7: 100 mg/kg po qd to end), the T-C is 19.3 days, the “TFS (tumor free survivors)” value was 0 and the “Tumors that attained the 2000 mm^3 endpoint volume” value is listed as 13/15. In data set [2] (G7: 100 mg/kg po qd to end, Day 45), the “MTV (n) D45” value was 282 (2) imd. In data set [2] (G7: 100 mg/kg po qd to end, listed as dabrafenib), the “PR (partial regressions)” value is “One and one”. Moreover, the MTV in data set [2] (G7: 100 mg/kg po qd to end, two tumors remaining on Day 45) is reported as 282 mm^3. Besides, the IC50 in the data set on G-361 (Homo sapiens) is approximately 1.4 nM. Besides, the “Sensitivity of A375 cells (BRAF V600E)” value with A375 cells [3] is “sensitive”. In addition, in data set [4], the Anti-tumor response result is “insensitive”.
`N#Cc1c(Oc2ccc(F)c(NC(=O)Cc3cccc(C(F)(F)F)c3)c2)ccc2nc(NC(=O)C3CC3)sc12` [TAK-632]: the IC50 was found to be 26 nM in the data set with A375 and 164 nM in the data set on G-361.
`Cn1nnc2c(C(N)=O)ncn2c1=O` [Temozolomide]: in data set [1] (G10: 150 mg/kg po qd × 5), the “Deaths NTR” value is on record as 0 and the “Deaths TR” value is given as 0. Further, in data set [1] (G10: 150 mg/kg po qd × 5, nadir on Day 5), the “Mean BW Nadir” value is −1.6% Day 5. In data set [2] (G10: 150 mg/kg po qd × 5), the “% TGD” value is listed as 14%, the “CR (complete regressions)” value was found to be 0, the “Median TTE” value is listed as 10.5 days and the “PR (partial regressions)” value worked out at 0. In data set [2] (G10: 150 mg/kg po qd × 5), the T-C stood at 1.3 days and the “TFS (tumor free survivors)” value stood at 0.
With `CC(=O)Nc1cccc(-n2c(=O)n(C3CC3)c(=O)c3c(Nc4ccc(I)cc4F)n(C)c(=O)c(C)c32)c1` [Trametinib], the IC50 in the data set with A375 cells [5] (A-375, read-out: Relative IC50, Month 1, Par = Parental cell line) was found to be 0.5 nM; in the data set on A375 cells [5] (A-375, read-out: Relative IC50, Month 1, cell line BVD-523 (0.48 μM)), 0.7 nM; with A375 cells [5] (A-375, read-out: Relative IC50, Month 1, cell line Dab (15 nM Dab)), 2.5 nM; with A375 cells [5] (A-375, read-out: Relative IC50, Month 1, cell line Dab/523 (7.5 nM/0.24 μM)) it was 3.1 nM; in the data set with A375 cells [5] (A-375, read-out: Relative IC50, Month 1, cell line Tram (growing in 2 nM Tram)), 2.2 nM; in the data set on A375 cells [5] (A-375, read-out: Relative IC50, Month 2, Par = Parental cell line) it was 0.4 nM. Further, the IC50 in the data set on A375 cells [5] (A-375, read-out: Relative IC50, Month 2, cell line BVD-523 (0.8 μM)) is 24.3 nM; in the data set on A375 cells [5] (A-375, read-out: Relative IC50, Month 2, cell line Dab (127 nM Dab)), 1.1 nM; with A375 cells [5] (A-375, read-out: Relative IC50, Month 2, cell line Dab/523 (12.5 nM/0.4 μM)), 6.2 nM; in the data set with A375 cells [5] (A-375, read-out: Relative IC50, Month 2, cell line Tra (8 nM Tram)) it was 0.7 nM; with A375 cells [5] (A-375, read-out: Relative IC50, Month 3, Par = Parental cell line), 0.2 nM; in the data set with A375 cells [5] (A-375, read-out: Relative IC50, Month 3, cell line Dab (3.2 μM Dab)) it was 0.4 nM.
As for `CCCS(=O)(=O)Nc1ccc(F)c(C(=O)c2c[nH]c3ncc(-c4ccc(Cl)cc4)cc23)c1F` [Vemurafenib], the IC50 was 47 nM with A375 (Homo sapiens, A-375) and 248 nM with G-361 (Homo sapiens).
